Measurements as given in patent US9334267B2, “RAF inhibitor compounds” (Deciphera Pharmaceuticals, LLC, priority 2012, dated 2016).

Assays:
[1] = test system: A375res cells
[2] = test system: HCT-116 cells; experiment: HCT-116 cell proliferation assay (resazurin); type: cell-based; settings: Homo sapiens, K-Ras mutation B-Raf wild type, read-out: Cell Proliferation Inhibition IC50, nM HCT-116
[3] = test system: Sk-Mel-2 cells; experiment: SK-Mel-2 cell proliferation assay (resazurin); type: cell-based; settings: Homo sapiens, N-Ras mutation B-Raf wild type, read-out: Cell Proliferation Inhibition IC50, nM SK-Mel-2
[4] = molecular target: T1, human wild type C-Raf (Homo sapiens, UniProt P04049); experiment: Enzymatic assay of C-Raf kinase activity (Raf/MEK1 ATPase, coupled PK/LDH, A340); type: biochemical; settings: read-out: Enzyme IC50, nM C-Raf
T1 construct: made in house
Procedure: Test compounds are evaluated for their inhibitory activities against one or more of human wild type B-Raf, human wild type C-Raf, human B-Raf V600E, human B-Raf V600E+T529I or human B-Raf V600E+G468A. T529I is a threonine to isoleucine B-Raf gatekeeper mutation and G468A is a B-Raf secondary mutation at G1403C in exon 11. The enzymatic assays of B-Raf, C-Raf and B-Raf mutations evaluate a property of Raf and MEK1 complex, which in the presence of ATP, catalyzes an enhanced ATP hydrolysis (Rominger, et al, Arch. Biochem. Biophys. 2007, 464: 130-137; US Patent Publication No. 2006/0211073). The ADP formed is monitored by the well-known coupled PK/LDH (pyruvate kinase/lactate dehydrogenase) system in the form of NADH oxidation, which can be monitored and detected spectrophotometrically by absorbance at 340 nm (A340; for principal of the method see Schindler et al, Science, 2000, 289: 1938-1942). Raf activated MEK1 ATPase activity is a property shared by all forms of Raf proteins.
Test compounds are evaluated for their inhibitory activities against one or more of wild type B-Raf, wild type C-Raf, B-Raf V600E, B-Raf V600E+T529I and B-Raf V600E+G468A. T529I is a B-Raf gatekeeper mutation and G468A is a B-Raf secondary mutation. The enzymatic assays of B-Raf, C-Raf and B-Raf mutations evaluate a property of Raf and MEK1 complex, which in the presence of ATP, catalyzes an enhanced ATP hydrolysis (Rominger, et al, Arch. Biochem. Biophys. 2007, 464: 130-137). The ADP formed is monitored by the well-known coupled PK/LDH (pyruvate kinase/lactate dehydrogenase) system in the form of NADH oxidation, which can be monitored and detected by absorbance at 340 nm (A340; for principal of the method see Schindler et al, Science, 2000, 289: 1938-1942). Raf activated MEK1 ATPase activity is a property shared by all forms of Raf proteins. In the B-Raf wild type enzymatic assay, the reaction mixture contains 1.2 nM B-Raf, 30 nM MEK1, 1000 uM ATP, 3.5 units (per 100 ul) of PK, 5 units (per 100 ul) of LDH, 1 mM phosphoenol pyruvate (PEP), and 280 uM of NADH. In the C-Raf assay, the reaction mixture contains 0.6 nM C-Raf, 26 nM MEK1, 2000 uM ATP, and the same amount of PK, LDH, PEP and NADH as above. In the B-Raf V600E assay, the reaction mixture contains […] B-Raf V600E, 26 nM MEK1, 200 uM ATP and the same amount of PK, LDH, PEP and NADH as above. In the B-RafV600E+T529I assay, the reaction mixture contains 6.2 nM B-Raf V600E+T529I, 30 nM MEK1, 200 uM ATP and the same amount of PK, LDH, PEP and NADH as above. In the B-Raf V600E+G468A assay, the reaction mixture contains 3.5 nM B-Raf, 30 nM MEK1, 200 uM ATP and the same amount of PK, LDH, PEP and NADH as above. All assays are started by mixing the above mixture with test compound and monitoring at A340 continuously for approximately 5 hr. […] In the aforementioned assays, the enzyme constructs can be screened prior to or after cleavage of the N-terminal purification tag.

[5] = molecular target: T2, human wild type c-KIT (Homo sapiens, UniProt P10721); experiment: Enzymatic assay of c-Kit kinase activity (poly E4Y phosphorylation, coupled PK/LDH); type: biochemical
T2 construct: GST (N); made in house
From the text: c-Kit is an important oncogene, and its overexpression and genetic mutations often occur in melanoma and gastrointestinal stromal tumor (GIST) patients. In the c-Kit enzymatic assay, the phosphorylation of poly E4Y by ATP catalyzed by human c-Kit is monitored spectrophotometrically. The ADP produced from the kinase reaction is coupled to pyruvate kinase/lactate dehydrogenase (PK/LDH) reactions where NAD is formed from pyruvate and NADH. NADH can be detected by absorbance at 340 nm, as described above for enzymatic assays of kinase activities of B-Raf, C-Raf and B-Raf mutations.
The assay reaction mixture includes 6 nM human wild type c-KIT, 1 mg/mL Poly (Glu,Tyr) (Sigma), 1 mM Phosphoenol-pyruvate, 280 μM NADH, 5 U/3.5 U (per 100 ul) Pyruvate Kinase/Lactate Dehydrogenase, 85 mM Tris, pH 7.5, 17 mM MgCl2, 0.0042% Triton® X-100, 0.005% BSA, 1% DMSO. Test compound is incubated with the reaction mixture for 0.5 hour before adding 200 μM ATP to start the reaction at 30° C.

[6] = test system: A375 cells; experiment: A375 cell proliferation assay (CellTiter-Blue/resazurin); type: cell-based; settings: Homo sapiens, A-375, V600E mutation, read-out: Cell Proliferation Inhibition IC50, nM A375
Procedure: A375 cells (catalog #CRL-1619) are obtained from the American Type Culture Collection (ATCC, Manassas, Va.). Briefly, cells are grown in DMEM High Glucose supplemented with 10% characterized fetal bovine serum (Invitrogen, Carlsbad, Calif.) and 1% Penicillin/Streptomycin/L-Glutamine at 37 degrees Celsius, 5% CO2, and 95% humidity. Cells are allowed to expand until reaching 70-95% confluency at which point they are subcultured or harvested for assay use. A serial dilution of test compound is dispensed into a 384-well black clear bottom plate in triplicate. Six hundred twenty-five cells are added per well in 50 μL complete growth medium in the 384-well plate. Plates are incubated for 67 hours at 37 degrees Celsius, 5% CO2, and 95% humidity. At the end of the incubation period, 10 μL of a 440 μM solution of resazurin (Sigma, St. Louis, Mo.) in PBS is added to each well of the plate and plates are incubated for an additional 5 hours at 37 degrees Celsius, 5% CO2, and 95% humidity. Plates are read on a Synergy2 reader (Biotek, Winooski, Vt.) using an excitation of 540 nm and an emission of 600 nm. Data is analyzed using Prism software (Graphpad, San Diego, Calif.) to calculate IC50 values.
The A375, HT-29, and Colo-205 cells (ATCC) harbor a V600E mutation.

T1 sequence (P04049 whole entry): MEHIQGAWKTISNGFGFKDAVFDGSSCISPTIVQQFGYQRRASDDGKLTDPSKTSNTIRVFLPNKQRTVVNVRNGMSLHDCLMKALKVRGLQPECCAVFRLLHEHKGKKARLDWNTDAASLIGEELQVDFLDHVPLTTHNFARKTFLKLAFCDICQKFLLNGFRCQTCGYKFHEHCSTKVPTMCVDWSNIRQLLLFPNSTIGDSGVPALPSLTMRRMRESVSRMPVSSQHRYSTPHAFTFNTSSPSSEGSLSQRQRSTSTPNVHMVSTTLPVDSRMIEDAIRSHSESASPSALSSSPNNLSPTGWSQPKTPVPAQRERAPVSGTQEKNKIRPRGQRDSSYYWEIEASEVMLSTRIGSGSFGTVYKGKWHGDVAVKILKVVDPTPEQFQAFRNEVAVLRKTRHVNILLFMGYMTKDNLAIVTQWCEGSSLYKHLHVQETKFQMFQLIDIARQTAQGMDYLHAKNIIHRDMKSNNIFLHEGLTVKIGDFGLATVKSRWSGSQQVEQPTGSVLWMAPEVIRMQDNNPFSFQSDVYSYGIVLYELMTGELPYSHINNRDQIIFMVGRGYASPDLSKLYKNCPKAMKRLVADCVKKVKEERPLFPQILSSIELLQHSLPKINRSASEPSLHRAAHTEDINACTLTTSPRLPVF
T2 sequence (P10721 26-976): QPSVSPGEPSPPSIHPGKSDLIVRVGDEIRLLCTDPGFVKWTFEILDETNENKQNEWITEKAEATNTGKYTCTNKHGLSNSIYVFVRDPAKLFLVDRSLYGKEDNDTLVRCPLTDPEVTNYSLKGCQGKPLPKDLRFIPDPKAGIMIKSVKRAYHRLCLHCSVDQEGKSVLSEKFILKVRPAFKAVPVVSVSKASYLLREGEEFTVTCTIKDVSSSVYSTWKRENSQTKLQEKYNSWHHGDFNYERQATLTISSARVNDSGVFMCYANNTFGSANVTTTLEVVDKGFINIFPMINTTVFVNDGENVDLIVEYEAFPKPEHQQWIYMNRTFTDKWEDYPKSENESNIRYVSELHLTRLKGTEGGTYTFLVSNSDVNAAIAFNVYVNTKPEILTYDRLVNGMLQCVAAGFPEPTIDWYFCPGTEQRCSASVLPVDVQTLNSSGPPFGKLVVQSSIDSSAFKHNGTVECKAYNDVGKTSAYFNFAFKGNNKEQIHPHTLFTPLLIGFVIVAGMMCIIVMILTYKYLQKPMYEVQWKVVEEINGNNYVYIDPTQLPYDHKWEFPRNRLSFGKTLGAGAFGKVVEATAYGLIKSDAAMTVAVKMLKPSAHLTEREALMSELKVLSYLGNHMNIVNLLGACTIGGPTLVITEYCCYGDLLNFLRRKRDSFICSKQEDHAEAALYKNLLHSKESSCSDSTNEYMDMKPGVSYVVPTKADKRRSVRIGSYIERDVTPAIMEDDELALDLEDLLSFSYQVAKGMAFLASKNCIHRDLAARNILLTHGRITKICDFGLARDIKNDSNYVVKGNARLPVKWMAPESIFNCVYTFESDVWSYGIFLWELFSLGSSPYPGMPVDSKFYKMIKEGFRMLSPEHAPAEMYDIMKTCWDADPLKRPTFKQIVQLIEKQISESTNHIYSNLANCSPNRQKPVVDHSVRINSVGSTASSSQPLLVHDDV

Structure (SMILES)	IC50 shift A375 to A375res [1]	IC50 [2]	IC50 [3]	IC50 [4]	IC50 [5]	IC50 [6]
CNc1ncc2cc(-c3cc(NC(=O)NCC(O)C(C)(C)C)c(F)cc3F)c(C)nc2n1 (stereo not shown) [Example 11, 1-[2,4-Difluoro-5-(7-methyl-2-methylamino-pyrido[2,3-d]pyrimidin-6-yl)phenyl]-3-(2-hydroxy-3,3-dimethyl-butyl)urea]	–	1000 to 10000 nM	100 to 1000 nM	< 150 nM	< 150 nM	100 to 1000 nM
CNc1ncc2cc(-c3cc(NC(=O)NCCC(C)(C)C#N)c(F)cc3F)c(C)nc2n1 [Example 12, 1-(3-Cyano-3-methylbutyl)-3-(2,4-difluoro-5-(7-methyl-2-(methylamino)pyrido[2,3-d]pyrimidin-6-yl)phenyl)urea]	–	1000 to 10000 nM	100 to 1000 nM	< 150 nM	< 150 nM	1000 to 10000 nM
CNc1ncc2cc(-c3ccc(F)c(NC(=O)NCCC(C)(C)C#N)c3)c(C)nc2n1 [Example 13, 1-(3-Cyano-3-methylbutyl)-3-(2-fluoro-5-(7-methyl-2-(methylamino)pyrido[2,3-d]pyrimidin-6-yl)phenyl)urea]	–	1000 to 10000 nM	100 to 1000 nM	< 150 nM	< 150 nM	1000 to 10000 nM
Cc1cc(F)c(NC(=O)NCCC2(C)CC2)cc1-c1cc2cnc(N)nc2nc1C [Example 23, 1-(5-(2-Amino-7-methylpyrido[2,3-d]pyrimidin-6-yl)-2-fluoro-4-methylphenyl)-3-(2-(1-methylcyclopropyl)ethyl)urea]	–	100 to 1000 nM	100 to 1000 nM	< 150 nM	< 150 nM	100 to 1000 nM
Cc1cc(F)c(NC(=O)NCCC(C)(C)F)cc1-c1cc2cnc(NCCO)nc2nc1C [Example 29, 1-(3-Fluoro-3-methylbutyl)-3-(2-fluoro-5-(2-((2-hydroxyethyl)amino)-7-methylpyrido[2,3-d]pyrimidin-6-yl)-4-methylphenyl)urea]	–	1000 to 10000 nM	1000 to 10000 nM	< 150 nM	< 150 nM	1000 to 10000 nM
COCCNc1ncc2cc(-c3cc(NC(=O)NC4CC(C)(C)C4)c(F)cc3C)c(C)nc2n1 [Example 31, 1-(3,3-Dimethylcyclobutyl)-3-(2-fluoro-5-(2-((2-methoxyethyl)amino)-7-methylpyrido[2,3-d]pyrimidin-6-yl)-4-methylphenyl)urea]	–	100 to 1000 nM	100 to 1000 nM	< 150 nM	< 150 nM	< 100 nM
CNc1ncc2cc(-c3cc(NC(=O)NCCC(C)(C)C)c(F)cc3Br)c(C)nc2n1 [Example 32, 1-(4-Bromo-2-fluoro-5-(7-methyl-2-(methylamino)pyrido[2,3-d]pyrimidin-6-yl)phenyl)-3-(3,3-dimethylbutyl)urea]	–	100 to 1000 nM	100 to 1000 nM	< 150 nM	< 150 nM	< 100 nM
CC(=O)Nc1ncc2cc(-c3cc(NC(=O)NCCC(C)(C)C)c(F)cc3C)c(C)nc2n1 [Example 33, N-(6-(5-(3-(3,3-Dimethylbutyl)ureido)-4-fluoro-2-methylphenyl)-7-methylpyrido[2,3-d]pyrimidin-2-yl)acetamide]	–	100 to 1000 nM	100 to 1000 nM	< 150 nM	< 150 nM	< 100 nM
CNc1ncc2cc(-c3cc(NC(=O)NCCC(C)(C)C)c(F)cc3F)cnc2n1 [Example 36, 1-(2,4-Difluoro-5-(2-(methylamino)pyrido[2,3-d]pyrimidin-6-yl)phenyl)-3-(3,3-dimethylbutyl)urea methanesulfonate]	–	1000 to 10000 nM	1000 to 10000 nM	< 150 nM	< 150 nM	1000 to 10000 nM

Continued, values first:

IC50 shift A375 to A375res [1]	IC50 [2]	IC50 [3]	IC50 [4]	IC50 [5]	IC50 [6]	Structure (SMILES)
0.6-1.9 fold	100 to 1000 nM	100 to 1000 nM	< 150 nM	< 150 nM	100 to 1000 nM	CNc1ncc2cc(-c3cc(NC(=O)NCCC(C)(C)F)c(F)cc3C)c(C)nc2n1 [Example 4, 1-(3-Fluoro-3-methylbutyl)-3-(2-fluoro-4-methyl-5-(7-methyl-2-(methylamino)pyrido[2,3-d]pyrimidin-6-yl)phenyl)urea]
–	100 to 1000 nM	1000 to 10000 nM	< 150 nM	< 150 nM	100 to 1000 nM	CNc1ncc2cc(-c3cc(NC(=O)NCCC(C)(C)OC)c(F)cc3C)c(C)nc2n1 [Example 14, 1-(2-Fluoro-4-methyl-5-(7-methyl-2-(methylamino)pyrido[2,3-d]pyrimidin-6-yl)phenyl)-3-(3-methoxy-3-methylbutyl)urea]
0.6-1.9 fold	100 to 1000 nM	100 to 1000 nM	< 150 nM	< 150 nM	< 100 nM	CNc1ncc2cc(-c3cc(NC(=O)NCC(O)C(C)(C)C)c(F)cc3C)c(C)nc2n1 (stereo not shown) [Example 15, 1-[2-Fluoro-4-methyl-5-(7-methyl-2-methylamino-pyrido[2,3-d]pyrimidin-6-yl)phenyl]-3-(2-hydroxy-3,3-dimethyl-butyl)urea]
–	100 to 1000 nM	100 to 1000 nM	< 150 nM	< 150 nM	< 100 nM	Cc1cc(F)c(NC(=O)NCCC(C)(C)C)cc1-c1cc2cnc(NCc3cn(C)cn3)nc2nc1C [Example 22, 1-(3,3-Dimethylbutyl)-3-(2-fluoro-4-methyl-5-(7-methyl-2-(((1-methyl-1H-imidazol-4-yl)methyl)amino)pyrido[2,3-d]pyrimidin-6-yl)phenyl)urea]
